In patent publication US10888567B2, “Inhibitors of tryptophan dioxygenases (IDO1 and TDO) and their use in therapy” (AUCKLAND UNISERVICES LIMITED, priority 2014, dated 2021) one finds IC50 data, which are given here for three molecules.

Test [1] concerns the target human TDO (GL261 cells transfected to over-express full length human TDO) (Homo sapiens (Human), UniProt P48775). In words: Cell-based assay for TDO inhibition. Conditions: GL261 cells over-expressing human TDO, 24 h; read-out: Cellular IC50. The protocol: Culture supernatant from each well was then transferred into a fresh, flat-bottomed 96-well plate, and kynurenine content was determined as described above for the IDO1 assay, and the concentration that inhibited 50% cellular enzyme activity was calculated.

The subject of test [2] is Lewis Lung carcinoma cells transfected to express IDO1 (LLTC-hIDO1). The experiment in a line: MTT cell viability in the cellular IDO1 assay. In kind it is cell-based. The following applies: same experiment as cellular IDO1 assay. The method, then: The viability of the cells in each well in the same experiment was determined using the 3-(4,5-dimethylthiazolyl-2-yl)-2,5-diphenyltetrazolium bromide (MTT) colourimetric assay. After the removal of the supernatant for determination of IDO1 inhibition, the cells were incubated with MTT (500 μg/mL) until crystal formation was observed. […] DMSO (100 μL/well) was added to dissolve the crystals and then the absorbance in each well was measured at 570 nm. Cell viability in each well was expressed as a percentage of untreated controls. Triplicate cultures were used for all experiments unless stated otherwise.

The target in test [3] is human IDO1 (LLTC-hIDO1 cells) (Homo sapiens, UniProt P14902). The experiment in a line: Cell-based assay for IDO1 inhibition (kynurenine in supernatant). The following applies: IDO1-transfected Lewis Lung carcinoma cells, 24 h; read-out: Cellular IC50. The method, then:
Culture supernatant from each well was then transferred into a fresh, flat-bottomed 96-well plate, mixed with trichloroacetic acid (10% final concentration) and incubated for 20 min at 60° C. […] The absorbance of each well was read at 480 nm, and the concentration that inhibited 50% cellular enzyme activity was calculated.

Test [4] concerns the target Recombinant human IDO1 (rhIDO1) (Homo sapiens (Human), UniProt P14902). The experiment in a line: Enzymatic assay for IDO1 activity. In kind it is biochemical. Conditions: rhIDO1 9 nM, 80 μM TRP, 37° C. 30 min. The protocol: Recombinant human IDO1 (rhIDO1) was expressed and purified from cultures of EC538 strain of E. coli transformed with pREP4 and pQE9-IDO plasmid. Reaction mixes were set up in 384-well microplates containing 50 mM phosphate buffer, 10 mM ascorbic, 10 μM methylene blue, 100 μg/mL catalase, 80 μM TRP, 0.01% Tween 20 (v/v) mixed with rhIDO1 (15 μL) at a final concentration of 9 nM in a total volume of 30 μL assay medium. The plates were incubated at 37° C. for 30 min, and the enzymatic reaction was terminated by adding piperidine (200 mM) and heated at 65° C. for 20 min. Fluorescence intensity was read at λex 400 nm and λem 500 nm. Test compounds were dissolved in 100% DMSO and pre-diluted in assay medium prior to adding rhIDO1. IDO1 inhibition (%) was calculated as
[formula] All experiments were carried out in triplicates, and statistical Analyses were conducted in Prism v5 (Graphpad Software, Inc., La Jolla, Calif., USA). Cell-Based Assay for IDO1 Inhibition

The subject of test [5] is GL261 cells transfected to over-express human TDO. The experiment in a line: MTT cell viability in the cellular TDO assay. It counts as cell-based. The following applies: same experiment as cellular TDO assay. The protocol:
The viability of the cells in each well in the same experiment was determined using the 3-(4,5-dimethylthiazolyl-2-yl)-2,5-diphenyltetrazolium bromide (MTT) colourimetric assay.

Bounds are passed on as bounds.

Chain of human TDO (GL261 cells transfected to over-express full length human TDO) (P48775 whole entry): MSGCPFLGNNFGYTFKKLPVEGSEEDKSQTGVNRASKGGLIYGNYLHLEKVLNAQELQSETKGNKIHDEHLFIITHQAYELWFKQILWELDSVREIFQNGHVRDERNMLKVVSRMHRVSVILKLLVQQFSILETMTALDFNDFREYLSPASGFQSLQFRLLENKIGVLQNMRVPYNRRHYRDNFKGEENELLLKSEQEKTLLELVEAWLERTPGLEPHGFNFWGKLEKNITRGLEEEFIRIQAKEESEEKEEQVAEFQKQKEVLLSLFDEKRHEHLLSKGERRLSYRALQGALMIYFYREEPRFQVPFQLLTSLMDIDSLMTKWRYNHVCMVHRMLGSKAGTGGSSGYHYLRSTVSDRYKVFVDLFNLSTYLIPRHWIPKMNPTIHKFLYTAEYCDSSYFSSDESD
Chain of Recombinant human IDO1 (rhIDO1) (P14902 whole entry): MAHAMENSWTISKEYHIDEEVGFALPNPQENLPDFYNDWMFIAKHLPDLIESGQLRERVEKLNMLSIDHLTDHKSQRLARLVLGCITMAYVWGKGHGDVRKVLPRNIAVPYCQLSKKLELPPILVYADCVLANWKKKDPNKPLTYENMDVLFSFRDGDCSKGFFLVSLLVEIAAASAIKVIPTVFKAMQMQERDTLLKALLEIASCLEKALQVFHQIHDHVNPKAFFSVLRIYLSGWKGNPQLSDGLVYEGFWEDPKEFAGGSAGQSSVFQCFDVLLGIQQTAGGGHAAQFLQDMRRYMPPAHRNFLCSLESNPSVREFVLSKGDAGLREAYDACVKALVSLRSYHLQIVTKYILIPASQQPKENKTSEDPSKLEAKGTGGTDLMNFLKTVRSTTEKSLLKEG

Consider `Nc1noc2nc(Cl)ccc12` [Compound 11, 6-Chloroisoxazolo[5,4-b]pyridin-3-amine], for which the half-maximal inhibitory concentration (IC50) (commonly the midpoint of a concentration-inhibition curve) in test [1] was under 1 µM; in test [2] it was over 100 µM; in test [3] it was under 1 µM; in test [4], 1 to 10 µM; in test [5] it was over 100 µM.

On to `Nc1noc2nc(Cl)c(F)cc12` [Compound 66, 6-Chloro-5-fluoroisoxazolo[5,4-b]pyridin-3-amine], for which the IC50 is under 1 µM in test [1]; over 100 µM in test [2]; under 1 µM in test [3]; under 1 µM in test [4]; over 100 µM in test [5].

Consider `Nc1noc2nc(Oc3ccc(OC(F)(F)F)cc3)ccc12` [Compound 89, 6-(4-(Trifluoromethoxy)phenoxy)isoxazolo[5,4-b]pyridin-3-amine], for which the IC50 in test [1] is 10 to 100 µM; in test [2], over 100 µM; in test [3], 10 to 100 µM; in test [4], over 100 µM; in test [5], over 100 µM.
